Test results from article PMC11809919, “Quinoxaline-based anti-schistosomal compounds have potent anti-plasmodial activity” (PLOS Pathogens, 2025).
Several values for one entry are separate records, joined by “and”; a condition that tells them apart may be missing. Equal values may be shown once. Read-outs that look alike come from different tables or passages of the source.

What was measured:
[1] = system: P. falciparum Dd2; experiment: Rate of killing (CFDA-SE labelled RBC reinvasion); type: cell-based, Plasmodium falciparum; settings: Dd2, 10×IC50, 24 h or 48 h
Experimental: The rate of killing was evaluated as previously described in Linares et al.. […] After treatment, the compound was removed, and the culture was diluted (1/3) using fresh RBCs (2% haematocrit) pre-labelled with CFDA-SE (carboxylfluorescein diacetate succinimidyl ester, Life Technologies). Following a 48 h incubation under standard conditions, the ability of treated parasites to infect fresh labelled RBCs was measured using a Cytoflex flow cytometer by quantifying double-positive RBCs after labelling the parasites with MitoTracker Deep Red. Parasite viability was determined as the percentage of infected CFDA-SE-labelled RBCs in drug-treated samples at 24 and 48 h, compared to equivalent untreated controls. Standard compounds dihydroartemisinin, chloroquine, and atovaquone were used as benchmarks for comparing the killing rate of the test compounds.

[2] = system: P. falciparum 3D7; experiment: Compound dose-response assay (72 h, SYBR Green I), 3D7; type: cell-based, Plasmodium falciparum; settings: for IC50: 72 h, asexual blood stage; for Selectivity index HepG2/3D7: HepG2 72 h CC50 / Pf 3D7 IC50
Experimental: (§1) P. falciparum parasites were cultured at 3% hematocrit in RPMI 1640 (Gibco) medium consisting of 0.5% Albumax II (Gibco), 25 mM HEPES (Sigma), 0.21% sodium bicarbonate, 1x GlutaMAX (Gibco), 25 μg/mL gentamicin (Gibco). A tri-gas mixture (1% O2, 3% CO2, and 96% N2) was used for parasite cultures. Parasites were synchronized using a sorbitol and Percoll density gradient method. The following parasite strains were used: 3D7, Dd2 (MR4, MRA-156, T. Wellems), GB4 (MR4, MRA-925, T. Wellems), UG659 (P. Rosenthal), Tanzania (MR4, MRA-1169, Michal Fried), Cam/PH0212C (R. Fairhurst), and Cam3.II/ PH0306-C (R. Fairhurst). Transfection was performed using ring-stage parasites (5–8% parasitemia) using a Gene Pulser Xcell (Biorad) electroporator.
(§2) Compound dose-response assays were performed in flat-bottom 96-well plates. Tightly synchronized ring-stage parasites were diluted to 1% parasitemia at 2% hematocrit, and incubated with a two-fold serial dilution of compounds in complete medium. Untreated parasites or uninfected RBCs were included in the assay plate as controls. Parasite growth was assessed after 72 h by lysing parasites using 2× lysis buffer consisting of 10 mM Tris-HCl, 5 mM EDTA, 0.1% w/v saponin, and 1% v/v Triton X-100, supplemented with 2× SYBR Green I (Molecular Probes). The fluorescence was measured using a FluorStar Omega v5.11 plate reader. IC50 analysis was performed using GraphPad Prism v9, and statistical significance was determined by a two-sided Mann-Whitney U test. All assays were performed in technical duplicate with at least three biological replicates, as noted in the figure legends.

[3] = system: S. mansoni schistosomula; set-up: method as in Padalino et al. [13]; settings: ref Padalino et al. [13], cited from earlier work
[4] = system: HepG2 cells; set-up: method as in Padalino et al. [13]; settings: ref Padalino et al. [13], cited from earlier work
[5] = system: P. falciparum Dd2; experiment: Compound dose-response assay (72 h, SYBR Green I), Dd2; type: cell-based, Plasmodium falciparum; settings: for IC50: 72 h, asexual blood stage; for Selectivity index HepG2/Dd2: HepG2 72 h CC50 / Pf Dd2 IC50
Experimental: as §1, §2

[6] = system: P. falciparum PfQRP1 mutants (G1612V, D1863Y, D1829*, D1829A); experiment: Dose-response assay on CRISPR-edited PfQRP1 mutant lines; type: cell-based, Plasmodium falciparum; settings: for Susceptibility in CRISPR-edited G1612V and D1863Y PfQRP1 lines: versus silent-mutation and wildtype controls
Experimental: To generate the PfQRP1 hydrolase mutants (D1829stop and D1829A), the pDC2-Cas9-gRNA-donor plasmid was transfected into the P. falciparum Dd2 line. Donor plasmid (50 µg) containing the sgRNA ([…]) and a pfqrp1 homology region of 672 bp, centred on the D1829 residue, was used for transfection. Transfectants were selected using 5 nM WR99210 (a potent inhibitor of P. falciparum dihydrofolate reductase (DHFR) provided by Jacobus Pharmaceuticals) for 8 days, followed by culturing without drug until parasites were observed. Parasite clones were obtained using limiting dilution cloning. Confirmation of gene editing was performed with allele-specific PCR (forward primer […] and reverse primer […]) and Sanger sequencing using an internal primer ([…]).
as §2

[7] = system: P. falciparum ring, trophozoite and schizont stages; experiment: Stage specificity assay; type: cell-based, Plasmodium falciparum; settings: for Stage-specificity: 10 h pulse at ring, trophozoite or schizont stage
Experimental: Stage-specific drug assays were performed following a protocol modified from Murithi et al.. In this assay, parasites were tightly synchronized to the ring stage with repeated 5% sorbitol treatments. On the assay day, schizonts were purified using a 63% Percoll gradient and allowed to […]. […] Parasites were then plated in 96-well plates and exposed to different drug concentrations at various stages: […] Drug treatment was removed through three rounds of washes. Plates were lysed 62 h after drug washout, and parasite growth was assessed similarly to the standard 72 h assay that used constant drug exposure.

[8] = system: Dd2-Polδ clones C22-1.1 and C22-2.1; experiment: Dose-response assay on compound 22-selected clones (cross-resistance); type: cell-based, Plasmodium falciparum
Experimental: Resistance selections were performed using a mutator parasite line Dd2-Polδ with an elevated mutation rate. Three independent flasks with either 1×10^8 or 1×10^9 parasites each were treated with 5×IC50, and parasite death was monitored by microscopy (Giemsa staining). […] After eight days, compounds were removed from the media and the media was changed on alternate days. […] For recrudescent cultures, compound susceptibility was determined by dose-response assays. Parasite clones were obtained by limiting dilution and harvested for genomic DNA extraction, followed by whole-genome sequencing.
as §2

[9] = system: P. falciparum strains Cam/PH0212C, Cam3.II/PH0306-C, UG659, GB4, Tanzania; experiment: Dose-response assay against panel of geographically distinct strains; type: cell-based, Plasmodium falciparum; settings: Cambodian isolates
Experimental: as §1, §2

[10] = system: 3D7 parasites (hemoglobin, 'free' heme, hemozoin); experiment: Cellular heme fractionation assay; type: cell-based, Plasmodium falciparum; settings: 3D7, 0.5 – 2.5× IC50, 30 h
Text: Cellular heme fractionation to measure the amounts of different heme species was thereafter conducted as previously described. […] Pellets were then resuspended in 1× PBS (pH 7.5) and an aliquot of the trophozoite suspension used to quantify the total number of trophozoites isolated using flow cytometry. Contents of the remaining trophozoite pellet were then released by hypotonic lysis and sonication. […] The UV−visible spectrum of each heme fraction as an Fe(III)heme−pyridine complex was measured using a multi-well plate reader (Spectramax 340PC; Molecular Devices). The total amount of each heme species was quantified using a heme standard curve whereby the mass of each heme-Fe species per trophozoite (fg/cell) was calculated by dividing the total amount of each heme species by the corresponding number of parasites in that fraction as determined by flow cytometry. Statistical comparisons and analyses for trends were made on GraphPad Prism version 10 using Students’ t-test with Welch correction. The total amount of heme obtained from each fraction was quantified using a standard curve prepared from a 100 μg/mL heme standard solution of hematin (porcine) in 0.3 M NaOH. Serial dilutions of this standard were carried out in a 96-well plate with 100 μL 0.3 M NaOH as a blank. […] The visible spectra of heme as Fe(III)heme-pyridine complex were recorded in a multi-well plate reader. The amount of heme Fe per cell was calculated by dividing the total heme Fe in each fraction by the number of cells determined in each fraction.

[11] = system: β-hematin formation; experiment: Detergent-based β-hematin inhibition assay; type: biochemical; settings: cell-free, NP40 detergent, pH 4.8; read-out: βH Inhibition IC50, individual biological replicate
Experimental: From this stock 40 μL of each was delivered to wells in the final column (column 12) of a 96-well plate together with distilled water (120 μL) and NP40 detergent (305.5 mM, 40 μL). […] A serial dilution of each compound (100 μL) from column 12 to column 2 was carried out. Column 1 served as a blank with 0 mM sample. A 25 mM hematin stock solution was prepared by sonicating hemin in DMSO for one minute and then suspending 179 μL of this in a 1 M acetate buffer (20 mL, pH 4.8). […] The plate was covered and incubated at 37°C for 5 h. […] Acetone (60 μL) was then added to assist with hematin dispersion. The UV-vis absorbance of the plate wells was read on a SpectraMax […] plate reader.

[12] = system: S. mansoni adult worms; set-up: method as in PMID 24416463; settings: 400 compounds of the Malaria Box; cited from earlier work
[13] = system: P. berghei liver stage parasites; set-up: method as in PMID 22096101; settings: cited from earlier work
[14] = Plasmodium falciparum, 3D7, 72 h
[15] = 72 h, read-out: 72 h -phenotype EC50
[16] = average of phenotype and motility, read-out: Average EC50
[17] = HepG2, 24 h, read-out: 24 h CC50
[18] = HepG2, 72 h, read-out: 72 h CC50
[19] = Plasmodium falciparum, DD2, 72 h

| Structure (SMILES) | Rate of parasite killing [1] | Selectivity index HepG2/3D7 [2] | IC50 [2, 14] | EC50 [3, 15] | EC50 [3, 16] | EC50 ([3]; read-out: Motility EC50) | CC50 [4, 17] | CC50 [4, 18] | Selectivity index HepG2/Dd2 [5] | IC50 [5, 19] | Effect of D1829 stop / D1829A PfQRP1 mutation on IC50 [6] | Increase in IC50 in D1829A / D1829 stop PfQRP1 mutants [6] | Susceptibility in CRISPR-edited G1612V and D1863Y PfQRP1 lines [6] | Drop in potency for a 10 h pulse compared with continuous exposure for 72 h [7] | Stage-specificity [7] | Shift in IC50 in compound 22-selected clones versus parental Dd2-Polδ [8] | Potency against panel of geographically distinct strains [9] | Activity against S. mansoni adult worms [12] | other results |
| --- | --- | --- | --- | --- | --- | --- | --- | --- | --- | --- | --- | --- | --- | --- | --- | --- | --- | --- | --- |
| O=[N+]([O-])c1ccc2nc(Nc3ccc(Cl)c(Cl)c3)c(Nc3ccc(Cl)c(Cl)c3)nc2c1 [Compound 22] | rapidly reduced parasitemia | 11.9 | 22 nM | 470 nM | 440 nM | 420 nM | 7400 nM | 260 nM | 8.0 | 32 nM | elevated IC50 | 2–3 fold | reduced susceptibility | 3–4 fold | did not demonstrate a strong stage-specificity | small but consistent shift in IC50 | potencies similar to those recorded for the lab strain Dd2 | – | IC50 [2]: 21.9 nM; IC50 [5]: 32.4 nM |
| O=[N+]([O-])c1ccc2nc(Nc3ccc(C(F)(F)F)cc3)c(Nc3ccc(C(F)(F)F)cc3)nc2c1 [Compound 31] | rapidly reduced parasitemia | 8.2 | 9.7 nM | 340 nM | 310 nM | 280 nM | 8800 nM | 80 nM | 5.7 | 14 nM | elevated IC50 | 2–3 fold | reduced susceptibility | 3–4 fold | did not demonstrate a strong stage-specificity | small but consistent shift in IC50 | potencies similar to those recorded for the lab strain Dd2 | – | – |
| O=[N+]([O-])c1ccc2nc(Nc3cc(C(F)(F)F)ccc3F)c(Nc3cc(C(F)(F)F)ccc3F)nc2c1 [Compound 33] | rapidly reduced parasitemia | 22.2 | 4.5 nM | 150 nM | 150 nM | 150 nM | 27500 nM | 100 nM | 14.1 | 7.1 nM | not affected | – | – | 3–4 fold | did not demonstrate a strong stage-specificity | unexpectedly not | potencies similar to those recorded for the lab strain Dd2 | – | – |
| Brc1ccc(Nc2nc3ccccc3nc2Nc2ccc(Br)cc2)cc1 [MMV007224, 2-N,3-N-bis(4-bromophenyl)quinoxaline-2,3-diamine] | – | – | – | – | – | – | – | – | – | – | less potent | – | – | – | – | – | – | among the most active hits | Levels of 'free' heme or hemozoin relative to untreated controls [10]: no significant changes; Undigested hemoglobin levels [10]: modest concentration-dependent increase; IC50 [11]: 146000 nM and 198000 nM; Activity against P. berghei liver stage parasites [13]: did not show activity |
| O=C(Nc1ccc(Cl)c(Cl)c1)Nc1ccc(Cl)c(Cl)c1 [MMV665852] | – | – | – | – | – | – | – | – | – | – | – | – | – | – | – | – | – | most active compounds | – |
